# Experimental data taken from patent US20040259184A1, “Fluorescent methods for the high-throughput quantification of tartrate-resistant acid phosphatase (TRAP)” (Pharmacia Corporation, priority 2003, published 2004).
# Assays:
# [1] = system: TRAP activity in RAW 264.7 monocyte-macrophage cells differentiated into OCL; experiment: Fluorescent per-well TRAP activity assay in RAW cells differentiated into OCL; assay type: cell-based; settings: for Compound amount at which decrease of TRAP fluorescence is maximal / Compound amount at which dramatic decrease of TRAP fluorescence starts / Inhibition of TRAP activity (result in words) / Effect on detection of TRAP fluorescence: day 6, FIG. 4; for Inhibition of TRAP activity (result in words): IC50's comparable to previously published data; for Effect on TRAP activity: day 6; for Effect on detection of TRAP fluorescence: up to 10.0 uM
# Protocol: (§1) RAW (RAW 264.7 monocyte-macrophage) RAW (ATTC, Manassas, Va.) cells were maintained in culture using DMEM (Dulbecco's Modified Eagle Medium) media containing L-glutamine at 584 mg/L, 1% penicillin/streptomycin, and 10% FBS (fetal bovine serum). For osteoclast differentiation RAW cells were put down onto 96 well plates at a density of 1,000 cells per well in alpha MEM (Minimum Essential Medium) media containing L-glutamine at 292 mg/L, 1% penicillin/streptomycin, 10% FBS, soluble RANKL (PeproTech, Rocky Hill, N.J.) at 10 ng/ml, and M-CSF (Cell Sciences, Norwood, Mass.) at 25 ng/ml. All media were changed every two days. For experiments with compounds, the compounds were added at the time of plating the cells in differentiation media. Additionally compounds were replenished during every media change leading up to the day 6 termination of the experiment.
# (§2) Media was removed and cells were fixed onto their plated surface with 4% formaldehyde (Sigma, Saint Louis, Mo.) in PBS (Phosphate Buffer Saline) solution for 20 minutes. After fixing, cells were permeablized in PBS with 0.1% Tween (Sigma, Saint Louis, Mo.) for 15 minutes. Cells were then incubated with 200 uM of ELF 97 phosphatase substrate (Molecular Probes, Eugene, Oreg.) for 15 minutes in a 3.4 mM acetate buffered solution (pH 5.0) containing 6.7 mM Tartrate (Sigma, Saint Louis, Mo.). These conditions (of slightly acidic pH and high concentrations of tartrate) discriminate TRAP activity from other phosphatases. Cells were then washed twice with PBS (pH 7.4). After the final wash, plates were immediately quantified for TRAP activity.
# (§3) Quantification of TRAP TRAP activity per well was quantified on a SpetraFluor Plus (Tecan, Research Triangle Park, N.C.) using an excitation of 360 nm and an emission of 550 nm using the optimal gain function. For quantification of the number of OCL, PI (propidium iodide) (Sigma, Saint Louis, Mo.) at a final concentration of 10 ug/ml was added to the TRAP stained cells to nonspecifically stain the cells. After PI staining the 96 well plates were analyzed using an ArrayScanII (Cellomics, Pittsburgh, Pa.) on the Nuclear Translocation software. In this Nuclear Translocation software analysis, the cytoplasmic image area is not used while the nuclear image area is expanded to encompass the entire PI stained cellular area. Cell size selection was performed through nuclear size selection criteria within Channel 1 of the Nuclear Translocation software package. TRAP intensity selection was performed through total fluorescence intensity utilizing Channel 2.
# [2] = system: OCL differentiated from RAW 264.7 monocyte-macrophage cells; experiment: Automated OCL counting assay (size and TRAP-intensity selected cells, ArrayScan); assay type: cell-based; settings: day 6, FIG. 5
# Protocol: as §1, §2, §3
# The determination of differentiation into OCL is typically based upon morphological criteria along with staining for TRAP. […] Therefore, basing differentiation solely upon per well TRAP activity could lead to a false positive reading. To circumvent this limitation we developed an automated approach to quantify the number of OCL based upon the size of the cells in addition to TRAP activity. Due to the limitations of the software analyses, the size of the cells were used in place of number of nuclei as a selection criteria for OCL formation. The size of the cells typically correlates with cell fusion and the number of nuclei. Also while some single nucleated cells can also be large in size, these cells typically tend not to be TRAP positive. The data capture was performed using the Cellomics ArrayScan 11, which is an automated fluorescent microscope and plate handler. The data analyses were performed by using the Cellomic's “Nuclear Translocation” imaging analysis software.
# [3] = system: OCL formation; settings: previously published data (Matsumoto 2000; Kumar 2001); read-out: IC50 of dose dependent inhibition of OCL formation; cited from earlier work
Structure (SMILES),Compound amount at which decrease of TRAP fluorescence is maximal [1],Compound amount at which dramatic decrease of TRAP fluorescence starts [1],Inhibition of TRAP activity (result in words) [1],Compound amount at which decrease in quantity of TRAP positive cells counted starts [2],Concentration at which decrease in TRAP positive cells counted is maximal (near zero amounts) [2],Effect on TRAP activity [1],Effect on detection of TRAP fluorescence [1],Effect on number of TRAP positive cells counted ([2]; at 10.0 uM),Effect on the number of OCL [2],IC50 [3]
C[S+]([O-])c1ccc(-c2nc(-c3ccc(F)cc3)c(-c3ccncc3)[nH]2)cc1 (stereo not drawn) [SB203580],10.0 µM,1.0 µM,dose dependent inhibition of TRAP activity,0.3 µM,10.0 µM,–,–,–,–,–
COc1cccc(-c2cc(=O)c3ccccc3o2)c1N [PD98059],–,–,–,–,–,little effect,did not significantly inhibit,no significant decrease,little effect,–
Oc1ccc(-c2nc(-c3ccc(F)cc3)c(-c3ccncc3)[nH]2)cc1 [SB202190],10.0 µM,1.0 µM,dose dependent inhibition of TRAP activity,–,–,–,–,–,–,1000 nM
CCc1nc(-c2ccc(OC)cc2)[nH]c1-c1ccncc1 [SB202474],–,–,–,0.3 µM,10.0 µM,little effect,did not significantly inhibit,–,little effect,–
